Source: patent publication US12679837B2, “Aminopyrimidine compound as CDK2/4/6 triple inhibitor” (CISEN PHARMACEUTICAL CO., LTD, priority 2019, dated 2026)

Legend:
CDK2/CyclinA2 = biological target: T1, CDK2/CyclinA2 (Homo sapiens, UniProt P24941); test: CDK2/CyclinA2 kinase activity test (ADP-Glo); assay type: biochemical; settings: 50 μM ATP, 25° C., 60 minutes; read-out: Enzyme activity data (IC50) CDK2/cyclinA
T1 construct: purchased Promega
Description: Experimental materials: CDK2/CyclinA2 kinase detection kit was purchased from Promega. Nivo Multilabel Analyzer (PerkinElmer).
Experimental method: Kinase buffer dilution enzyme in the kit, substrate, adenosine triphosphate and inhibitor were used. The compounds to be tested were diluted 5-fold to the 8th concentration with a row gun, that is, from 50 μM to 0.65 nM, the concentration of DMSO was 5%, and a double-replicate well experiment was set up. 1 μL of each concentration gradient of inhibitor, 2 μL of CDK2/CyclinA2 enzyme (1.6 ng), and 2 μL of a mixture of substrate and ATP (50 μM of adenosine triphosphate, 0.1 μg/μL of substrate) were added to the microplate, and at this time, the final concentration gradient of compound was diluted from 10 μM to 0.13 nM. The reaction system was placed at 25° C. and reacted for 60 minutes. After the reaction was complete, 5 μL of ADP-Glo reagent was added to each well, and the reaction was continued at 25° C. for 40 minutes. At the end of the reaction, 10 μL of kinase detection reagent was added to each well. After the reaction was continued at 25° C. for 30 minutes, the chemiluminescence was read by a multi-label analyzer with an integration time of 0.5 seconds.
Using the equation (Sample−Min)/(Max−Min)×100% to convert the original data into inhibition rate, the IC50 value can be obtained by curve fitting with four parameters (obtained by the mode of log(inhibitor) vs. response—Variable slope in GraphPad Prism). Table 1 provides the enzymatic inhibitory activities of the compounds of the present invention on CDK2/CyclinA2, CDK2/CyclinE1, CDK4/CyclinD1, CDK6/CyclinD1, CDK9/CyclinT1.

CDK4/CyclinD1 = biological target: T2, CDK4/CyclinD1 (Homo sapiens, UniProt P11802); test: CDK4/CyclinD1 kinase activity test (LANCE Ultra TR-FRET); assay type: biochemical; settings: 350 μM ATP, 25° C., 120 minutes; read-out: Enzyme activity data (IC50) CDK4/cyclinD1
T2 construct: purchased Invitrogen
T2 sequence (P11802 whole entry): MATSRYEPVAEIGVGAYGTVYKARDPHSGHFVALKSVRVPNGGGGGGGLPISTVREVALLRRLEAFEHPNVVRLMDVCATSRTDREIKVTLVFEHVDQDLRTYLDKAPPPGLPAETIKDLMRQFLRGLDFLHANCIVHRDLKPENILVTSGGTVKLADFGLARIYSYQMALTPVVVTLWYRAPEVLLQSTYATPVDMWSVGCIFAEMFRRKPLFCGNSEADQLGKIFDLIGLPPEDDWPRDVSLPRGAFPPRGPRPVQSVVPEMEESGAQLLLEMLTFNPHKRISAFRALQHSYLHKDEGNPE
T2 sequence (P24385 whole entry partner): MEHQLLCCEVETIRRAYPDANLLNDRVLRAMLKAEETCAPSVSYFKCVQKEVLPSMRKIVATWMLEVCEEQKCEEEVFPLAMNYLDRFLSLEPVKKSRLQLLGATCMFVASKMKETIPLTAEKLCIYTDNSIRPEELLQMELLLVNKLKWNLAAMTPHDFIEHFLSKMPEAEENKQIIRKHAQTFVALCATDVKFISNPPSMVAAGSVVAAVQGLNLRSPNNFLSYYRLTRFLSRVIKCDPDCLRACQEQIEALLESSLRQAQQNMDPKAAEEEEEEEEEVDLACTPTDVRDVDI
Description: Experimental materials: CDK4/CyclinD1 kinase was purchased from Invitrogen, reaction substrate LANCE Ultra ULight™-4E-BP-1 (Thr37146) Peptide and EU-ANTI-P-4EBP1 (THR37/46) were purchased from PerkinElmer. Nivo Multilabel Analyzer (PerkinElmer).
(§1) Experimental method: preparation of kinase buffer: The components of the buffer include: 50 mM of hydroxyethylpiperazine […] solution with pH 7.5, 1 mM of EDTA, 10 mM of magnesium chloride, 0.01% lauryl polyoxyethylene ether (Brij-35), 2 mM of enzyme dithiothreitol, kinase buffer dilution enzyme, substrate LANCE Ultra ULight™-4E-BP-1 (Thr37146) Peptide, adenosine triphosphate and inhibitor. […] The reaction system was continued at 25° C. for 120 minutes. After the reaction was complete, a mixture of 5 μL of EDTA and 2× LANCE™ Detection Buffer (1:1) was added to each well, and reacted at 25° C. for 5 minutes, after the reaction was complete, 5 μL of LANCE Ultra Eu-anti-P-4E-BP1(Thr37MS) (4 nM) was added to each well, and reacted at 25° C. for 60 minutes, the reaction signal was detected by Nivo instrument according to the principle of time-resolved fluorescence resonance energy transfer.
(§2) Table 1 provides the enzymatic inhibitory activities of the compounds of the present invention on CDK2/CyclinA2, CDK2/CyclinE1, CDK4/CyclinD1, CDK6/CyclinD1, CDK9/CyclinT1.

CDK6/CyclinD1 = biological target: T3, CDK6/CyclinD1 (Homo sapiens, UniProt Q00534); test: CDK6/CyclinD1 kinase activity test (LANCE Ultra TR-FRET); assay type: biochemical; settings: 250 μM ATP, 25° C., 120 minutes; read-out: Enzyme activity data (IC50) CDK6/cyclinD1
T3 construct: purchased Carna
T3 sequence (Q00534 whole entry): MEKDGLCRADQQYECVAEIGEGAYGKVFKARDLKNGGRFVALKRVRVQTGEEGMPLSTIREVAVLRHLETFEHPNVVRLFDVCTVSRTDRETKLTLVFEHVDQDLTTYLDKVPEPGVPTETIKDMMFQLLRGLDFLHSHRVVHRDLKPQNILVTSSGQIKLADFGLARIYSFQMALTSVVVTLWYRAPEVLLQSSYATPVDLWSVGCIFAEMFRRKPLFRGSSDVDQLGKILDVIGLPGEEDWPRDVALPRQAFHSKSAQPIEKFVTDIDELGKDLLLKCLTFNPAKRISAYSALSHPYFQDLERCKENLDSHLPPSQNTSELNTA
T3 sequence (P24385 whole entry partner): as the sequence (P24385 whole entry partner) above
Description: Experimental materials: CDK6/CyclinD1 kinase was purchased from Carna, reaction substrate LANCE Ultra ULight™-4E-BP-1 (Thr37146) Peptide and EU-ANTI-P-4EBP1 (THR37/46) were purchased from PerkinElmer. Nivo Multilabel Analyzer (PerkinElmer).
as §1, §2

CDK9/CyclinT1 = biological target: T4, CDK9/CyclinT1 (Homo sapiens, UniProt P50750); test: CDK9/CyclinT1 kinase activity assay (ADP-Glo); assay type: biochemical; settings: 100 μM ATP, 25° C., 60 minutes; read-out: Enzyme activity data (IC50) CDK9/CyclinT1
T4 construct: purchased Carna
T4 sequence (P50750 whole entry): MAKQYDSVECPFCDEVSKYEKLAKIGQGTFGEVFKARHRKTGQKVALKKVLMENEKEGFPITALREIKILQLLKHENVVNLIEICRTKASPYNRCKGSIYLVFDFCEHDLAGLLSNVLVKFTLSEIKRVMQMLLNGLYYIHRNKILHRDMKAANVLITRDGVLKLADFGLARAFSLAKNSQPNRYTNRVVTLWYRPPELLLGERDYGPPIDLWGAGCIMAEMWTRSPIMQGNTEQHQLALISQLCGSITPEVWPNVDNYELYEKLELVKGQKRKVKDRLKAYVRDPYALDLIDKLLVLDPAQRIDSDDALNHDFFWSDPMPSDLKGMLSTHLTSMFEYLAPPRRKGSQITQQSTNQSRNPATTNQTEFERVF
T4 sequence (O60563 whole entry partner): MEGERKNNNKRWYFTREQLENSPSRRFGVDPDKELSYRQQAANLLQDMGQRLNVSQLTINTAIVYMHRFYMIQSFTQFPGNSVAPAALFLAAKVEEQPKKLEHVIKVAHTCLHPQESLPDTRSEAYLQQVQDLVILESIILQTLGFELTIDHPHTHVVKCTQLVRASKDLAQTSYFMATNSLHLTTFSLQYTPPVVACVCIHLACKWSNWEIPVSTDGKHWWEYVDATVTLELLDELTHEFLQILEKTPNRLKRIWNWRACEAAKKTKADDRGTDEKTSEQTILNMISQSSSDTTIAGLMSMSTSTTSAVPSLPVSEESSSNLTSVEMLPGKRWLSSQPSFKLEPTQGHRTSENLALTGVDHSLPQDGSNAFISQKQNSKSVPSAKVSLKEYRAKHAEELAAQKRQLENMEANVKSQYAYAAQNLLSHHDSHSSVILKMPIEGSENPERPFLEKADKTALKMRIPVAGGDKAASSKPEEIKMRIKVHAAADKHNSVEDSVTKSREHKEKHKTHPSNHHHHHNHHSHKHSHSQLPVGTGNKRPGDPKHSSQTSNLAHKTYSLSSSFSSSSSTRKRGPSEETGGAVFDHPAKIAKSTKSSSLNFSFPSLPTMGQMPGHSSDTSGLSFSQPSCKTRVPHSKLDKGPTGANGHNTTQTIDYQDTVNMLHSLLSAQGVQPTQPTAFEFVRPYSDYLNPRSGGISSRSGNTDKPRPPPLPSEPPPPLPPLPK
Description: Experimental materials: CDK9/CyclinT1 kinase was purchased from Carna, the ADP-Glo detection kit was purchased from Promega, the PKDTide substrate and kinase reaction buffer were purchased from Signalchem. Nivo Multilabel Analyzer (PerkinElmer).
Experimental method: Kinase buffer dilution enzyme in the kit, substrate, adenosine triphosphate and inhibitor were used. […] The reaction system was placed at 25° C. and reacted for 60 minutes. After the reaction was complete, 5 μL of ADP-Glo reagent was added to each well, and the reaction was continued at 25° C. for 40 minutes. At the end of the reaction, 10 μL of kinase detection reagent was added to each well. After the reaction was continued at 25° C. for 30 minutes, the chemiluminescence was read by a multi-label analyzer with an integration time of 0.5 seconds.
as §2

HCT116 cells = test: HCT116 cell activity test (CellTiter-Glo); assay type: cell-based; settings: Homo sapiens, HCT-116, 96 h, 4 days, read-out: Antiproliferative activity (IC50) HCT 116
Description: (§3) Experimental materials: McCoy' 5a medium, fetal bovine serum, and penicillin/streptomycin antibiotics were purchased from Vicente. CellTiter-Glo (chemiluminescence detection reagent for cell viability) reagent was purchased from Promega. The HCT116 cell line was purchased from Cobioer Biosciences Co., Ltd. Nivo Multilabel Analyzer (PerkinElmer).
Experimental method: HCT116 cells were seeded in a white 96-well plate, 80 μL of cell suspension per well, which contained 1000 HCT116 cells. The cell plate was incubated overnight in a carbon dioxide incubator. The compounds to be tested were diluted 5-fold to the 9th concentration with a row gun, that is, from 2 mM to 5.12 nM, and a double-replicate well experiment was set up. 78 μL of medium was added to the middle plate, and then transferred 2 μL per well of the gradient diluted compound to the middle plate according to the corresponding position, mixed well and transferred 20 μL per well to the cell plate. […] Another cell plate was prepared, and the signal value was read as the maximum value (Max value in the equation below) on the day of drug addition to participate in data analysis. 25 μL of chemiluminescence detection reagent for cell viability was added to each well of the cell plate, and incubated at room temperature for 10 minutes to stabilize the luminescence signal. A multi-label analyzer was used for reading. […]

HCC1806 cells = test: HCC1806 cell activity test (CyQUANT); assay type: cell-based; settings: Homo sapiens, 168 h, 7 days, read-out: Antiproliferative activity (IC50) HCC1806
Description: Experimental materials: RPMI-1640 medium, fetal bovine serum, penicillin/streptomycin antibiotics were purchased from Vicente. CyQUANT Cell Proliferation Assays (Cell proliferation assay kit) reagents were purchased from ThermoFisher. The HCC1806 cell line was purchased from Cobioer Biosciences Co., Ltd. Nivo Multilabel Analyzer (PerkinElmer).
Experimental method: HCC1806 cells were seeded in a white 96-well plate, 80 μL of cell suspension per well, which contained 3000 HCC1806 cells. The cell plate was incubated overnight in a carbon dioxide incubator. The compounds to be tested were diluted 5-fold to the 9th concentration with a row gun, that is, from 10 mM to 25.6 nM, and a double-replicate well experiment was set up. 78 μL of medium was added to the middle plate, and then transferred 2 μL per well of the gradient diluted compound to the middle plate according to the corresponding position, mixed well and transferred 20 μL per well to the cell plate. […] After reaching the incubation time, the cell supernatant was removed, and the cell plate was placed in a −80° C. refrigerator for 1 hour, after which 100 μL of Cyquant reagent was added to each well, and a multi-label analyzer was used for reading. Another cell plate was prepared, and the signal value was read as the maximum value (Max value in the equation below) on the day of drug addition to participate in data analysis. […]

MDA-MB-468 cells = test: MDA-MB-468 cell activity test (CellTiter-Glo); assay type: cell-based; settings: Homo sapiens, 168 h; MDA-MB-468 cells (Rb-negative), 7 days; read-out: Antiproliferative activity (IC50) MDA-MB-468
Description: as §3, with “L15” for “McCoy' 5a”, “serum,” for “serum, and”, “MDA-MB-468” for “HCT116”
Experimental method: MDA-MB-468 cells were seeded in a white 96-well plate, 80 μL of cell suspension per well, which contained 1000 MDA-MB-468 cells. The cell plate was incubated overnight in a carbon dioxide incubator. The compounds to be tested were diluted 5-fold to the 9th concentration with a row gun, that is, from 10 mM to 25.6 nM, and a double-replicate well experiment was set up. 78 μL of medium was added to the middle plate, and then transferred 2 μL per well of the gradient diluted compound to the middle plate according to the corresponding position, mixed well and transferred 20 μL per well to the cell plate. The concentration of compound transferred to the cell plate ranged from 50 μM to 0.128 nM. The cell plate was incubated in a carbon dioxide incubator for 7 days. Another cell plate was prepared, and the signal value was read as the maximum value (Max value in the equation below) on the day of drug addition to participate in data analysis. 25 μL of chemiluminescence detection reagent for cell viability was added to each well of the cell plate, and incubated at room temperature for 10 minutes to stabilize the luminescence signal. A multi-label analyzer was used for reading.
Data analysis: Using the equation (Sample−Min)/(Max−Min)×100% to convert the original data into inhibition rate, the IC50 value can be obtained by curve fitting with four parameters (obtained by the mode of log(inhibitor) vs. response—Variable slope in GraphPad Prism).

Compound | IC50 (CDK2/CyclinA2) [nM] | IC50 (CDK4/CyclinD1) [nM] | IC50 (CDK6/CyclinD1) [nM] | IC50 (CDK9/CyclinT1) [nM] | IC50 (HCT116 cells) [nM] | IC50 (HCC1806 cells) [nM] | IC50 (MDA-MB-468 cells) [nM]
CC(C)N1CC(S(=O)(=O)N2CCC(Nc3ncc4c(n3)N([C@@H]3CCC[C@@]3(C)O)C(=O)CC4)CC2)C1 [Compound 9] | 1.4 | 15.7 | 3.69 |  |  |  | 
CCN1CC(S(=O)(=O)N2CCC(Nc3ncc4c(n3)N([C@@H]3CCC[C@@]3(C)O)C(=O)CC4)CC2)C1 [Compound 8] | 1.78 | 14.9 | 3.4 |  |  |  | 
C[C@@]1(O)CCC[C@H]1N1C(=O)CCc2cnc(NC3CCN(S(=O)(=O)C4CC4)CC3)nc21 [Compound 3] | 1.18 | 23.6 | 4.74 |  |  |  | 
C[C@@]1(O)CCC[C@H]1n1c(=O)c(C(F)F)cc2cnc(NC3CCN(S(C)(=O)=O)CC3)nc21 [PF-06873600, reference compound] |  |  |  | 17.2 | 140 | 458 | 120
C[C@@]1(O)CCC[C@H]1N1C(=O)CCc2cnc(NC3CCN(S(=O)(=O)C4CNC4)CC3)nc21 [Compound 7] | 1.4 | 3.99 | 1.52 |  |  |  | 
COCCS(=O)(=O)N1CCC(Nc2ncc3c(n2)N([C@@H]2CCC[C@@]2(C)O)C(=O)CC3)CC1 [Compound 6] | 1.13 | 38.1 | 5.26 |  |  |  | 
CC(C)S(=O)(=O)N1CCC(Nc2ncc3c(n2)N([C@@H]2CCC[C@@]2(C)O)C(=O)CC3)CC1 [Compound 5] | 1.74 | 46.9 | 8.95 |  |  |  | 
CCS(=O)(=O)N1CCC(Nc2ncc3c(n2)N([C@@H]2CCC[C@@]2(C)O)C(=O)CC3)CC1 [Compound 4] | 1.32 | 37.5 | 5.42 |  |  |  | 
CN1CC(S(=O)(=O)N2CCC(Nc3ncc4c(n3)N([C@@H]3CCC[C@@]3(C)O)C(=O)CC4)CC2)C1 [Compound 10] | 1.52 | 9.09 | 2.65 |  |  |  | 
